pIC50: −log10 of the molar value.
Experiments:
[1] = tested on: THP-1; assay: cells; settings: Homo sapiens, THP-1, 192 h
[2] = target: T1, Amine oxidase [flavin-containing] A (Homo sapiens, UniProt P21397); assay: Inhibition of MAO-A (unknown origin) using (4S)-4,5-dihydro-2-(6-hydroxybenzothiazolyl)-4-thiazolecarboxylic acid as substrate by MAO-Glo assay
T1 sequence (P21397 whole entry): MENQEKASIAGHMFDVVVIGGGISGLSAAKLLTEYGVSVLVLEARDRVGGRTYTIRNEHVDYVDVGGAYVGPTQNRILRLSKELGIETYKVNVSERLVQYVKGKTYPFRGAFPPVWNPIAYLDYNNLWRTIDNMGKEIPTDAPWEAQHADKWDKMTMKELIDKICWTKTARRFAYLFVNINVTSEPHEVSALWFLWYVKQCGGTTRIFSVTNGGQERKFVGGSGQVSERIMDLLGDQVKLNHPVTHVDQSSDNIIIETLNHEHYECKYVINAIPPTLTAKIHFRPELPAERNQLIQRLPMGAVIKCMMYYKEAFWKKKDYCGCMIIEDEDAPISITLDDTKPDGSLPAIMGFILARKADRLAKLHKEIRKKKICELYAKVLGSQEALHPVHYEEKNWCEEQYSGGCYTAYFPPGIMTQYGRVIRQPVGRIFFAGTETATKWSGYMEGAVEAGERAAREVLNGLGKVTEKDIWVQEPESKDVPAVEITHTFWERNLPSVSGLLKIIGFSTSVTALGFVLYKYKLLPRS

[3] = target: T2, Amine oxidase [flavin-containing] B (Homo sapiens, UniProt P27338)
T2 sequence (P27338 whole entry): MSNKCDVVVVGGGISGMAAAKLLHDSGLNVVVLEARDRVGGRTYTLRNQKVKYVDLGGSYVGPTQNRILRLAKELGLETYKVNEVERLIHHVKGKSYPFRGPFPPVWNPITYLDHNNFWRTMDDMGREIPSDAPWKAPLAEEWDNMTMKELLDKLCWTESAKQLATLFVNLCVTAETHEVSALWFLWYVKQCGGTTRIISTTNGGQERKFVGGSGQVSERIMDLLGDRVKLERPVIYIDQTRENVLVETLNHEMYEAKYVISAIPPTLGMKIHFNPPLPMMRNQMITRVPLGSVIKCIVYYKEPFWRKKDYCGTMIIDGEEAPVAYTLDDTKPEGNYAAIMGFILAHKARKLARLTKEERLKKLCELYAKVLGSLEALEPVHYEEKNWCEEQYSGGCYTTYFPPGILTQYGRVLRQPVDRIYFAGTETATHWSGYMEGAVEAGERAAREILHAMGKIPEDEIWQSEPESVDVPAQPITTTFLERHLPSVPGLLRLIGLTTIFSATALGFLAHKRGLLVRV

[4] = tested on: MOLM-13; assay: cells; settings: Homo sapiens, MOLM-13, 192 h
[5] = tested on: MV4-11; assay: cells; settings: Homo sapiens, MV4-11, 192 h
[6] = target: Lysine-specific histone demethylase 1A (Homo sapiens, UniProt O60341); assay: Inhibition of full length LSD1 (unknown origin) expressed in Escherichia coli BL21 (DE) using H3K4me2 peptide as substrate after 30 mins by fluorescence assay
[7] = tested on: THP-1; assay: Inhibition of colony formation in human THP1 cells after 14 days by DAPI staining-based microscopic analysis; format: functional, cell-based
[8] = tested on: THP-1; assay: Induction of morphological changes in human THP1 cells assessed as blurred cell membrane boundaries after 3 days by H and E staining based assay; format: functional
[9] = tested on: THP-1; assay: Induction of morphological changes in human THP1 cells assessed as chromatin shrinkage after 3 days by H and E staining based assay; format: functional, cell-based

pIC50 [1]	pIC50 [2]	pIC50 [3]	pIC50 [4]	pIC50 [5]	pIC50 [6]	Structure (SMILES)	inhibition [7]	Activity [8]	Activity [9]
5.10	< 4.30	< 4.30	4.65	5.33	–	N/C(=N\O)c1cccc(/C=C/c2ccc(O)c(-c3ccccn3)c2)c1	–	–	–
4.98	< 4.30	< 4.30	4.90	4.96	6.52	Nc1cccc(/C=C/c2ccc(O)c(-c3ccccn3)c2)c1	–	–	–
5.24	< 4.30	< 4.30	5.08	5.13	–	N/C(=N\O)c1cccc(/C=C/c2ccnc(-c3cc(F)ccc3O)c2)c1	Dose-dependent effect	Dose-dependent effect	Dose-dependent effect
4.86	< 4.30	< 4.30	5.04	4.80	–	N/C(=N\O)c1cccc(/C=C/c2ccnc(-c3ccccc3O)c2)c1	–	–	–

Structure (SMILES)	pIC50 [1]	pIC50 [2]	pIC50 [3]	pIC50 [4]	pIC50 [5]	pIC50 [6]	inhibition [7]	Activity [8]	Activity [9]
N[C@H]1CC[C@H](N[C@@H]2C[C@H]2c2ccccc2)CC1	< 4.70	–	–	–	–	–	–	–	–

Source: ChEMBL document CHEMBL4308871, “Design, synthesis and in vitro evaluation of stilbene derivatives as novel LSD1 inhibitors for AML therapy” (Bioorg Med Chem, 2018)
